The text below walks through data of US5430026A, “2'-deoxy-2',2'-difluoro (4-substituted pyrimidine) nucleosides, bicyclic derivatives,pharmaceutical compositions, and synthetic precursors” (Eli Lilly and Company, priority 1993, dated 1995).

In brackets after ≈: the same amount, converted by molar mass.

One test concerns HSV-1. Briefly: plaque inhibition of HSV-1 in African green monkey kidney cells (BSC-1), Table 2. The class given is cell-based, Herpes simplex virus, type I. The following applies: 72 hours at 37° C., IC50 less than 20 μg/ml is considered active; for IC50: Human alphaherpesvirus 1, BSC-1 cells, read-out: HSV-1 IC50 (concentration giving 50 percent growth inhibition; plaque inhibition).

The subject of the next test is HSV-2. Briefly: plaque inhibition of HSV-2 in African green monkey kidney cells (BSC-1), Table 2. It counts as cell-based, Herpes simplex virus, type II. The following applies: 72 hours at 37° C., IC50 less than 20 μg/ml is considered active; for IC50: Human alphaherpesvirus 2, BSC-1 cells, read-out: HSV-2 IC50 (concentration giving 50 percent growth inhibition; plaque inhibition).

In test [1] the test system is human leukemia cells (CCRF-CEM cell line). Briefly: growth inhibition (cytotoxicity) of human leukemia cells, Table 1. The class given is cell-based. Particulars: IC50 less than 20 μg/ml is considered active; for IC50: Homo sapiens, read-out: IC50 (concentration giving 50 percent growth inhibition). The source says:
38, 2886 (1978). The representative compounds of formula I employed in the present invention are cytotoxic as They inhibit the growth of rapidly dividing human leukemia cells (CCRF-CEM cell line). Table 1 below gives the results of testing several compounds representative of formula I. In Table 1, Column 1 gives the representative compound and Column 2 gives the IC50 (concentration giving 50 percent growth inhibition) in μg/ml.

`NNc1ccn([C@@H]2O[C@H](CO)[C@@H](O)C2(F)F)c(=O)n1` [Example 5, β-1-(2-Oxo-4-hydrazino-1,2-dihydropyrimidin-1-yl)-2-deoxy-2,2-difluororibose]: the figures for the IC50 (with HSV-1; in the test with HSV-2; in test [1]) were 3.12 µg/mL (≈ 11.2 µM), 4.35 µg/mL (≈ 15.6 µM) and 0.077 µg/mL (≈ 0.277 µM), respectively.
As to `CCOC(=O)C(C)Nc1ccn([C@@H]2O[C@H](CO)[C@@H](O)C2(F)F)c(=O)n1` (stereo partly drawn) [Example 11, β-1-(2-oxo-4-N-alanineethyl ester-1,2-dihydropyrimidin-1-yl)-2-deoxy-2,2-difluororibose], the “IC50 (concentration giving 50 percent growth inhibition)” value in test [1] stood at 6.3 µg/mL (≈ 17.3 µM).
As for `O=C(O)CNc1ccn([C@@H]2O[C@H](CO)[C@@H](O)C2(F)F)c(=O)n1` [Example 9, β-1-(2-Oxo-4-N-glycinyl-1,2-dihydropyrimidin-1yl)-2-deoxy-2,2-difluororibose], the IC50 in test [1] worked out at 0.4 µg/mL (≈ 1.25 µM).
In the case of `O=c1n([C@@H]2O[C@H](CO)[C@@H](O)C2(F)F)ccc2nnnn12` [Example 2, 6-(2-deoxy-2,2-difluoro-β-D-ribofuranosyl)-1,2,3,4-tetrazolo[1,5-c]pyrimidine-5(6H) -one], the IC50 in the test on HSV-1 was 8 µg/mL (≈ 27.7 µM); in the test on HSV-2, 9.25 µg/mL (≈ 32 µM); in test [1], 0.5 µg/mL (≈ 1.73 µM).
The matching figures for `CCOC(=O)Nc1ccn([C@@H]2O[C@H](CO)[C@@H](O)C2(F)F)c(=O)n1` [Example 6, β-1-(2-Oxo-4-aminocarboethoxy-1,2-dihydropyrimidin-1-yl)-2-deoxy-2,2-difluororibose]: 0.53 µg/mL (≈ 1.58 µM), 0.58 µg/mL (≈ 1.73 µM) and 0.051 µg/mL (≈ 0.152 µM).
For `O=c1[nH]nc2ccn([C@@H]3O[C@H](CO)[C@@H](O)C3(F)F)c(=O)n12` [Example 4, 6-(2-deoxy-2,2-difluoro-β-D-ribofuranosyl)-1,2,4-triazolo[4,3c]pyrimidine-3,5(2H,6H)-dione] the same measures were 6 µg/mL (≈ 19.7 µM), 4.9 µg/mL (≈ 16.1 µM) and 0.2 µg/mL (≈ 0.657 µM).
Consider `CNNc1ccn([C@@H]2O[C@H](CO)[C@@H](O)C2(F)F)c(=O)n1` [Example 10, β-1-[2-Oxo-4-(2-methylhydrazino)-1,2-dihydropyrimidin-1-yl]-2-deoxy-2,2-difluororibose], for which the IC50 in test [1] was found to be 4.1 µg/mL (≈ 14 µM).
On to `O=c1nc(NO)ccn1[C@@H]1O[C@H](CO)[C@@H](O)C1(F)F` [Example 1, β-1-(2-Oxo-4-hydroxyamino-1,2-dihydropyrimidin-1-yl)-2-deoxy-2,2-difluororibose], for which the IC50 with HSV-1 worked out at 0.7 µg/mL (≈ 2.51 µM); with HSV-2, 1.07 µg/mL (≈ 3.83 µM); in test [1], 0.086 µg/mL (≈ 0.308 µM).
Consider `CCOC(=O)CNc1ccn([C@@H]2O[C@H](CO)[C@@H](O)C2(F)F)c(=O)n1` [Example 8, β-1-(2-Oxo-4-N-glycineethyl ester-1,2-dihydropyrimidin-1-yl)-2-deoxy-2,2-difluororibose], for which the IC50 in test [1] came out at 18.4 µg/mL (≈ 52.7 µM).
Consider `O=c1nc(NCO)ccn1[C@@H]1O[C@H](CO)[C@@H](O)C1(F)F` [Example 7, β-1-(2-Oxo-4-hydroxymethylamino-1,2-dihydropyrimidin-1-yl)-2-deoxy-2,2-difluororibose], for which the “HSV-1 IC50 (concentration giving 50 percent growth inhibition; plaque inhibition)” value in the test with HSV-1 (BSC-1 cells) came to 18.0 µg/mL. Further, the “HSV-2 IC50 (concentration giving 50 percent growth inhibition; plaque inhibition)” value with HSV-2 (BSC-1 cells) turned out to be 11.1 µg/mL. Also, in test [1], the “IC50 (concentration giving 50 percent growth inhibition)” value amounted to 0.3 µg/mL (≈ 1.02 µM).
